Results: patent publication US20080293699A1, “Inhibitors of thapsigargin-induced cell death” (priority 2007, published 2008)
pIC50: −log10 of the molar value.

System: phospho-p38 MAPK
Test: Thapsigargin-induced p38 MAPK phosphorylation in CSM14.1 cells (immunoblotting and MSD assay)
Type: cell-based, rat
Excerpt: After confirming the pathway selectivity of compounds, additional downstream assays can be performed to map the specific signal transduction pathway inhibited by the compounds. In this regard, various antibody reagents are commercially available for assessing the status of the three major pathways known to be activated by ER stress: (1) PERK, (2) Ire1, and (3) ATF6 (Xu et al., J. Clinical Invest., 115:2656-2664, 2005). Immunoblotting experiments can be performed to assess the expression or phosphorylation (using phospho-specific antibodies) of marker proteins in these pathways. […] Cell lysates were prepared and analyzed by SDS-PAGE/immunoblotting using antibodies specific for phospho-c-Jun, phospho-eIF2α, phospho-p38 MAPK, and tubulin (a loading control). […] After two hrs, cell lysates were prepared, normalized for protein content, and either analyzed by SDS-PAGE/immunoblotting using anti-p38-MAPK pan-reactive antibody or phospho-specific antibody with ECL-based detection, followed by densitometry analysis of x-ray films, normalizing phosphor-p38 MAPK relative to total p38 MAPK, or analyzed using a meso-scale instrument from MSD and a procedure in which total p38 MAPK is captured on plates, and the relative amounts of phosphorylated protein were determined using phospho-specific antibody (MSD catalog #K15112D1). […]

## CCN(CC)c1ccc(C2Nc3ccccc3NC3=C2C(=O)CC(c2ccccc2)C3)cc1 (centres unmarked) [Compound 5962123, 6-(4-diethylaminophenyl)-9-phenyl-5,6,8,9,10,11-hexahydrobenzo[c][1,5]benzodiazepin-7-one]
CSM14.1, immunoblotting and MSD assay, 10 μM, 25 μM hits
  Thapsigargin-induced phosphorylation of p38MAPK: inhibits
Quantitative ELISA-methods, thapsigargin-treated CSM14.1, estimated, read-out: IC50 for p38MAPK phosphorylation
  pIC50: > 5.30
